Experiment: excess molar enthalpy (molar enthalpy of mixing); xn = mol fraction of the nth substance listed
Settings: Fluid (supercritical or subcritical phases)

C=C(C)C1CC=C(C)CC1 (configuration not stated) [1-methyl-4-(1-methylethenyl)cyclohexene] + O=C=O
excess molar enthalpy [kcal/mol]
Settings | 308.15 K | 313.15 K
7640 kPa, x2 = 0.129 | -0.105 | –
7640 kPa, x2 = 0.196 | -0.174 | –
7640 kPa, x2 = 0.218 | – | -0.233
7640 kPa, x2 = 0.238 | -0.211 | -0.258
7640 kPa, x2 = 0.277 | -0.245 | -0.287
7640 kPa, x2 = 0.314 | -0.271 | –
7640 kPa, x2 = 0.349 | – | -0.379
7640 kPa, x2 = 0.382 | -0.329 | –
7640 kPa, x2 = 0.413 | -0.374 | -0.476
7640 kPa, x2 = 0.442 | -0.391 | –
7640 kPa, x2 = 0.47 | – | -0.553
7640 kPa, x2 = 0.492 | – | -0.577
7640 kPa, x2 = 0.497 | -0.435 | –
7640 kPa, x2 = 0.522 | -0.466 | –
7640 kPa, x2 = 0.546 | – | -0.668
7640 kPa, x2 = 0.569 | – | -0.697
7640 kPa, x2 = 0.591 | -0.533 | –
7640 kPa, x2 = 0.596 | – | -0.755
7640 kPa, x2 = 0.652 | -0.58 | -0.832
7640 kPa, x2 = 0.697 | -0.633 | –
7640 kPa, x2 = 0.738 | – | -0.957
7640 kPa, x2 = 0.775 | – | -1.01
7640 kPa, x2 = 0.808 | -0.749 | -1.03
7640 kPa, x2 = 0.845 | – | -1.07
7640 kPa, x2 = 0.868 | – | -0.985
7640 kPa, x2 = 0.878 | -0.814 | –
7640 kPa, x2 = 0.918 | – | -0.617
7640 kPa, x2 = 0.97 | -0.848 | –
7640 kPa, x2 = 0.972 | -0.842 | –
7640 kPa, x2 = 0.985 | – | -0.153
10000 kPa, x2 = 0.058 | – | -0.00359
10000 kPa, x2 = 0.111 | 0.0136 | -0.00526
10000 kPa, x2 = 0.136 | 0.0134 | -0.00741
10000 kPa, x2 = 0.207 | 0.0184 | -0.0117
10000 kPa, x2 = 0.25 | 0.0182 | -0.0151
10000 kPa, x2 = 0.29 | – | -0.0182
10000 kPa, x2 = 0.328 | 0.0194 | –
10000 kPa, x2 = 0.363 | – | -0.0294
10000 kPa, x2 = 0.397 | 0.0146 | –
10000 kPa, x2 = 0.428 | 0.011 | –
10000 kPa, x2 = 0.486 | 0.0043 | –
10000 kPa, x2 = 0.548 | -0.00741 | –
10000 kPa, x2 = 0.562 | -0.00908 | –
10000 kPa, x2 = 0.666 | -0.0354 | –
10000 kPa, x2 = 0.71 | -0.0492 | –
10000 kPa, x2 = 0.75 | -0.0612 | –
10000 kPa, x2 = 0.785 | -0.0746 | –
10000 kPa, x2 = 0.818 | -0.0903 | –
10000 kPa, x2 = 0.875 | -0.105 | –
10000 kPa, x2 = 0.923 | -0.105 | –
10000 kPa, x2 = 0.94 | -0.0985 | –
10000 kPa, x2 = 0.964 | -0.0803 | –
10000 kPa, x2 = 0.983 | -0.0495 | –

— the NIST ThermoML archive (doi:10.1016/j.fluid.2006.05.027)
